The values that follow come from US11787785B2 (NOVARTIS AG, priority 2021, dated 2023).

Structures are written as SMILES.

This assay concerns the target T1, WIZ protein (HiBit-WIZ fusion protein) (Homo sapiens, UniProt O95785+Q96SW2).
T1 construct: expressed in transfected cells
Put plainly: Quantification of WIZ protein levels in HiBit tag fusion protein assay (WIZ HiBit assay in 293T cells). It is filed as cell-based. The conditions noted are these: for Dmax at 25 µM / remaining activity at 25 µM: HEK-293T, 293T cells; for Dmax at 25 µM: 100 − Amax, read-out: % degradation of WIZ (100 − Amax); for remaining activity at 25 µM: DMSO-normalized, curve-fitted percentage of WIZ-HiBit remaining at 25 uM, read-out: WIZ Amax; for DC50: WIZ HiBit assay in 293T cells, 10-point, 5-fold dose response, highest concentration 25 μM, about 18 hours, read-out: WIZ AC50. The method, then:
The HiBit system from Promega was used to develop high-throughput and quantitative assays to measure changes in WIZ protein levels in response to compounds. The HiBit tag was derived from a split Nanoluciferase and has the following protein sequence: […] (SEQ ID NO: 1). The complementary fragment of Nanoluciferase (known as LgBit, from Promega), was added to the HiBit tag to form an active Nanoluciferase enzyme whose activity can be precisely measured. In this way, the levels of a fusion protein with the HiBit tag can be quantified in cell lysates.
Lentiviral vectors, based on the Invitrogen™ pLenti6.2/V5 DEST backbone were constructed that places the HiBit tag upstream of WIZ and expressed the fusion protein from an HSVTK promotor.
To ensure moderate and consistent expression of the HiBit-WIZ fusion protein across all cells in the population, stable cell lines were constructed from cells harboring a single copy of the construct. Lentivirus packaged with the constructs were made using the ViraPower™ kit from Invitrogen™. 293T cells from ATCC (Catalog number: CRL-3216), were infected with the virus at low multiplicity of infection and selected by 5 μg/mL blasticidin in culture media for 2 weeks.
The levels of HiBit-WIZ tagged fusion proteins in compound-treated cell lines were measured as follows:
On day 1, cells were diluted to 1.0×10^6 cells/ml in normal growth medium. 20 μL of cell suspension were plated in each well of a solid white 384-well plate. Plates were incubated overnight in a 37° C. and 5% CO2 humidified tissue culture incubator.
On day 2, serial dilutions of compounds were made in 384-well plates. Compound plates were set up with DMSO in columns 1, 2, 23, 24, and 10-point compound dilution series in column 3-12 and column 13-22. 10 mM stock solution of compound were placed into column 3 or 13 and a 1:5 serial dilution was carried out until there was a 10-point dilution series per compound. 50 nL of diluted compounds were transferred into the plated cells by Echo® (Labcyte) acoustic transfer. The highest concentration of compound was 25 μM. Plates were incubated overnight (about 18 hours) in a 37° C. and 5% CO2 humidified tissue culture incubator.
On day 3, plates were removed from the incubator and allowed to equilibrate at room temperature for 60 minutes. HiBit substrate (Nano-Glo® HiBit Lytic Detection System, Promega Catalogue number: N3050) was added as described by the manufacturers protocols. Plates were incubated at room temperature for 30 minutes and luminescence was read using an EnVision® reader (PerkinElmer®). Data was analyzed and visualized using the Spotfire® software package.
WIZ Degradation Activity of Compounds (Table 1)
WIZ Amax reflects the DMSO-normalized, curve-fitted percentage of WIZ-HiBit remaining at 25 uM. It was calculated by normalizing […] controls to 100%, parametric curve fitting of the dose response data (10-point, 5-fold), followed by calculation of response at 25 uM using the fitted equation (nd=not determined).

T1 sequence (O95785 whole entry, the tested form may be a part): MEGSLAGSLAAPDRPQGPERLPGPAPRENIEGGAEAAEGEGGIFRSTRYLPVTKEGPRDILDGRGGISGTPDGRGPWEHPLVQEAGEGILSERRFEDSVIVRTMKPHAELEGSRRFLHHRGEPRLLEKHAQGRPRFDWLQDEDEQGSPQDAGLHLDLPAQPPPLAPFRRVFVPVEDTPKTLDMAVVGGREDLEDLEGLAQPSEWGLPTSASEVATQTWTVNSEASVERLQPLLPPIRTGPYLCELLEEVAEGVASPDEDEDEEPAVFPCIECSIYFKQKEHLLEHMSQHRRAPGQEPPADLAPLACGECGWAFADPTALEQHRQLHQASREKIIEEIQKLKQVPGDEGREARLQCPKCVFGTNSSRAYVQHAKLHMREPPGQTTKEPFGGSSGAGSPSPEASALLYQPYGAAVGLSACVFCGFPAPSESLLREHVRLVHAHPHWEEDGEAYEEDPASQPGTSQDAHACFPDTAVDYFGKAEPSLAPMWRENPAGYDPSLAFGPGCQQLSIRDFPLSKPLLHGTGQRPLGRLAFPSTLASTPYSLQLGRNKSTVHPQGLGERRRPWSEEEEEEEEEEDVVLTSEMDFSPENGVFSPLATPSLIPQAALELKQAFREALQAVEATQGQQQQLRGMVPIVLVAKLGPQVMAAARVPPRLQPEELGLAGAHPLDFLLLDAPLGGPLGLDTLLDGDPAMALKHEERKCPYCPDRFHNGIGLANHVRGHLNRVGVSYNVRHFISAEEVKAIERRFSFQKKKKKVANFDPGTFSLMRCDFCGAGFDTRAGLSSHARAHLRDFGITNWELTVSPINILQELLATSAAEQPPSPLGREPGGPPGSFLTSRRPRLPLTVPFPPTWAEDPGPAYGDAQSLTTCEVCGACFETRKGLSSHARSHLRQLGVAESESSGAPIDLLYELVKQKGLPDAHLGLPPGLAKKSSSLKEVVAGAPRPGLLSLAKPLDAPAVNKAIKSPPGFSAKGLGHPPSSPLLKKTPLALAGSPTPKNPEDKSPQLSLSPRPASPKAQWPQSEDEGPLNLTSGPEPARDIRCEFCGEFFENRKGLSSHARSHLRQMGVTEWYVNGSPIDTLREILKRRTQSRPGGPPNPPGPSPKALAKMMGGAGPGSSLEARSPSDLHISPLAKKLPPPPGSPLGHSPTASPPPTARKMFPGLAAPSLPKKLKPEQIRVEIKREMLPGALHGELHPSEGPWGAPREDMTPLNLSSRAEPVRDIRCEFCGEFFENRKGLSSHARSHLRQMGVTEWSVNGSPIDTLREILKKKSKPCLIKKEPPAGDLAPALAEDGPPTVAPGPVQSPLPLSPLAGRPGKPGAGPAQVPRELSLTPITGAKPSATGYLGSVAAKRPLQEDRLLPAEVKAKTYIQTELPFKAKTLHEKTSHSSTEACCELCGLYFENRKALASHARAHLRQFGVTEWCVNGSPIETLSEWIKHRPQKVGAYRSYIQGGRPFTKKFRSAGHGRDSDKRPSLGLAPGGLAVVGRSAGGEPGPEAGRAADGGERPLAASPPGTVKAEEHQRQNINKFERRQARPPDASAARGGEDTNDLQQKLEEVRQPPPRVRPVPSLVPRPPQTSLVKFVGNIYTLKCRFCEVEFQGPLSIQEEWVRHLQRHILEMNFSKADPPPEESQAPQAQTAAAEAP
T1 sequence (Q96SW2 whole entry, the tested form may be a part): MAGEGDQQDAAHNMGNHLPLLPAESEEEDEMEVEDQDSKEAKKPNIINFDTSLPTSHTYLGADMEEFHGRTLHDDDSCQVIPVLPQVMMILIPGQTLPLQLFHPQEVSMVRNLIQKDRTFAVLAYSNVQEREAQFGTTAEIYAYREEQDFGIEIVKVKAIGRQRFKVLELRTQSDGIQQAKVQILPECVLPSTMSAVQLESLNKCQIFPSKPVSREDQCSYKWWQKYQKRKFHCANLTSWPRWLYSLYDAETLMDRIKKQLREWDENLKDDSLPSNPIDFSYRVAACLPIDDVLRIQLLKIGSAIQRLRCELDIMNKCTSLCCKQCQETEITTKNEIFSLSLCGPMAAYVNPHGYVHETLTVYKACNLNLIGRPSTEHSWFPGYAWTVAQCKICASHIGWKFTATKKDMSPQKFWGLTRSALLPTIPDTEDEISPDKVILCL
T1 sequence (Q16531 whole entry partner, the tested form may be a part): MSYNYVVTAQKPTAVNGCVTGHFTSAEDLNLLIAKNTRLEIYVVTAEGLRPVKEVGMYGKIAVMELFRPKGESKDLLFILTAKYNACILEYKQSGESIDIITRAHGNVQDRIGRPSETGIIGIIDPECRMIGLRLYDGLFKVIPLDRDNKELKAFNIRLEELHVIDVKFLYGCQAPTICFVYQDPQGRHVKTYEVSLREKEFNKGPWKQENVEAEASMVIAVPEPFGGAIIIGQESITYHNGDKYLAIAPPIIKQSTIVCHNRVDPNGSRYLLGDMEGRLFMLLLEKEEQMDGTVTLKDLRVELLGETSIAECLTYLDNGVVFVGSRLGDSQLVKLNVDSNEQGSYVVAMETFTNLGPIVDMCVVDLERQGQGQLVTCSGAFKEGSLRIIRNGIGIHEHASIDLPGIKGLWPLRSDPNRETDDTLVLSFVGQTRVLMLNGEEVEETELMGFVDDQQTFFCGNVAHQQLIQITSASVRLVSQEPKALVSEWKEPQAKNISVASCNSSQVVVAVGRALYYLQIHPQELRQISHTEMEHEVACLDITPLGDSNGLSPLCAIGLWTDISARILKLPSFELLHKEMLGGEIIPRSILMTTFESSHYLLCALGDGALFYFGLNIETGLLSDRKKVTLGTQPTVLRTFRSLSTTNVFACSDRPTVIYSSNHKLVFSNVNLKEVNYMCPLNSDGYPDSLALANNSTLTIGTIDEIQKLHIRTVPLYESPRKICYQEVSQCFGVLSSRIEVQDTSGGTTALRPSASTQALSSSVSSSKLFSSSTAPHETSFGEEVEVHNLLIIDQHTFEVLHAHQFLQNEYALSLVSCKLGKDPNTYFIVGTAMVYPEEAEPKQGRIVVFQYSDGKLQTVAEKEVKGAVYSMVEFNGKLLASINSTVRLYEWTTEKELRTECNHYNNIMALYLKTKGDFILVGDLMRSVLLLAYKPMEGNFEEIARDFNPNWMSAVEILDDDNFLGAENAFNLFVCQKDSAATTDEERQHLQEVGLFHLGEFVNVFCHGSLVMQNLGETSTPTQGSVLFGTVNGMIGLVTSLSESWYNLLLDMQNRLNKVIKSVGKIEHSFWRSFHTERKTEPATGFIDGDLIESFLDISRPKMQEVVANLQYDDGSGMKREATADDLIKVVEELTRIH

Turning to `O=C1CCN(c2cnn3ccc(CC4CCN(CCC5CCCC5)CC4)cc23)C(=O)N1` [Example 16, 1-(5-((1-(2-cyclopentylethyl)piperidin-4-yl)methyl)pyrazolo[1,5-a]pyridin-3-yl)dihydropyrimidine-2,4(1H,3H)-dione], the Dmax at 25 µM is 84%, the remaining activity at 25 µM was 16% and the DC50 is 18 nM.
The matching figures for `O=C1CCN(c2cnn3ccc(CC4CCN(CC5CCC5)CC4)cc23)C(=O)N1` [Example 18, 1-(5-((1-(cyclobutylmethyl)piperidin-4-yl)methyl)pyrazolo[1,5-a]pyridin-3-yl)dihydropyrimidine-2,4(1H,3H)-dione]: 82%, 18% and 34 nM.
The matching figures for `CC(C)CCN1CCC(Cc2ccn3ncc(N4CCC(=O)NC4=O)c3c2)CC1` [Example 19, 1-(5-((1-isopentylpiperidin-4-yl)methyl)pyrazolo[1,5-a]pyridin-3-yl)dihydropyrimidine-2,4(1H,3H)-dione]: 81%, 19% and 20 nM.
For `CCC(CC)N1CCC(Cc2ccn3ncc(N4CCC(=O)NC4=O)c3c2)CC1` [Example 20, 1-(5-((1-(pentan-3-yl)piperidin-4-yl)methyl)pyrazolo[1,5-a]pyridin-3-yl)dihydropyrimidine-2,4(1H,3H)-dione], in that order: 79%, 21% and 22 nM.
For `CC(c1cccnc1)N1CCC(Cc2ccn3ncc(N4CCC(=O)NC4=O)c3c2)CC1` (stereo not drawn) [Example 21, 1-(5-((1-(1-(pyridin-3-yl)ethyl)piperidin-4-yl)methyl)pyrazolo[1,5-a]pyridin-3-yl)dihydropyrimidine-2,4(1H,3H)-dione], the Dmax at 25 µM came to 78%, the remaining activity at 25 µM came out at 22% and the DC50 came out at 25 nM.
Regarding `O=C1CCN(c2cnn3ccc(CC4CCN(Cc5cccc(F)c5)CC4)cc23)C(=O)N1` [Example 22, 1-(5-((1-(3-fluorobenzyl)piperidin-4-yl)methyl)pyrazolo[1,5-a]pyridin-3-yl)dihydropyrimidine-2,4(1H,3H)-dione], the Dmax at 25 µM was 77%, the remaining activity at 25 µM was 23% and the DC50 was found to be 71 nM.
In the case of `O=C1CCN(c2cnn3ccc(CC4CCN(Cc5ccc(F)cc5)CC4)cc23)C(=O)N1` [Example 23, 1-(5-((1-(4-fluorobenzyl)piperidin-4-yl)methyl)pyrazolo[1,5-a]pyridin-3-yl)dihydropyrimidine-2,4(1H,3H)-dione], the Dmax at 25 µM turned out to be 77%, the remaining activity at 25 µM is 23% and the DC50 was found to be 144 nM.
For `CCN1CCC(Cc2ccn3ncc(N4CCC(=O)NC4=O)c3c2)CC1` [Example 24, 1-(5-((1-ethylpiperidin-4-yl)methyl)pyrazolo[1,5-a]pyridin-3-yl)dihydropyrimidine-2,4(1H,3H)-dione], in that order: 77%, 23% and 1080 nM.
With `O=C1CCN(c2cnn3ccc(CC4CCN(Cc5cccc(C(F)(F)F)c5)CC4)cc23)C(=O)N1` [Example 25, 1-(5-((1-(3-(trifluoromethyl)benzyl)piperidin-4-yl)methyl)pyrazolo[1,5-a]pyridin-3-yl)dihydropyrimidine-2,4(1H,3H)-dione], the Dmax at 25 µM was 76%, the remaining activity at 25 µM turned out to be 24% and the DC50 worked out at 40 nM.
Take `CC(c1ccccc1)N1CCC(Cc2ccn3ncc(N4CCC(=O)NC4=O)c3c2)CC1` (stereo not drawn) [Example 26, 1-(5-((1-(1-phenylethyl)piperidin-4-yl)methyl)pyrazolo[1,5-a]pyridin-3-yl)dihydropyrimidine-2,4(1H,3H)-dione]: the Dmax at 25 µM was found to be 76%, the remaining activity at 25 µM stood at 24% and the DC50 was determined as 297 nM.
For `O=C1CCN(c2cnn3ccc(CC4CCN(Cc5cccc(OC(F)(F)F)c5)CC4)cc23)C(=O)N1` [Example 27, 1-(5-((1-(3-(trifluoromethoxy)benzyl)piperidin-4-yl)methyl)pyrazolo[1,5-a]pyridin-3-yl)dihydropyrimidine-2,4(1H,3H)-dione], in that order: 76%, 24% and 46 nM.
For `O=C1CCN(c2cnn3ccc(CC4CCN(Cc5ccncc5)CC4)cc23)C(=O)N1` [Example 28, 1-(5-((1-(pyridin-4-ylmethyl)piperidin-4-yl)methyl)pyrazolo[1,5-a]pyridin-3-yl)dihydropyrimidine-2,4(1H,3H)-dione], in that order: 75%, 25% and 105 nM.
The matching figures for `O=C1CCN(c2cnn3ccc(CC4CCN(Cc5ccccc5)CC4)cc23)C(=O)N1` [Example 29, 1-(5-((1-benzylpiperidin-4-yl)methyl)pyrazolo[1,5-a]pyridin-3-yl)dihydropyrimidine-2,4(1H,3H)-dione]: 74%, 26% and 232 nM.
With `O=C1CCN(c2cnn3ccc(CC4CCN(CC(F)(F)F)CC4)cc23)C(=O)N1` [Example 30, 1-(5-((1-(2,2,2-trifluoroethyl)piperidin-4-yl)methyl)pyrazolo[1,5-a]pyridin-3-yl)dihydropyrimidine-2,4(1H,3H)-dione], the Dmax at 25 µM is 80%, the remaining activity at 25 µM is 20% and the DC50 stood at 201 nM.
The matching figures for `O=C1CCN(c2cnn3ccc(CC4CCN(CC(F)(F)C(F)F)CC4)cc23)C(=O)N1` [Example 31, 1-(5-((1-(2,2,3,3-tetrafluoropropyl)piperidin-4-yl)methyl)pyrazolo[1,5-a]pyridin-3-yl)dihydropyrimidine-2,4(1H,3H)-dione]: 74%, 26% and 27 nM.
`O=C1CCN(c2cnn3ccc(CC4CCN(CC5CC(F)(F)C5)CC4)cc23)C(=O)N1` [Example 32, 1-(5-((1-((3,3-difluorocyclobutyl)methyl)piperidin-4-yl)methyl)pyrazolo[1,5-a]pyridin-3-yl)dihydropyrimidine-2,4(1H,3H)-dione]: the Dmax at 25 µM worked out at 82%, the remaining activity at 25 µM turned out to be 18% and the DC50 turned out to be 23 nM.
For `O=C1CCN(c2cnn3ccc(CC4CCN(Cc5cncc(F)c5)CC4)cc23)C(=O)N1` [Example 33, 1-(5-((1-((5-fluoropyridin-3-yl)methyl)piperidin-4-yl)methyl)pyrazolo[1,5-a]pyridin-3-yl)dihydropyrimidine-2,4(1H,3H)-dione], in that order: 73%, 27% and 31 nM.
The matching figures for `COCCN1CCC(Cc2ccn3ncc(N4CCC(=O)NC4=O)c3c2)CC1` [Example 34, 1-(5-((1-(2-methoxyethyl)piperidin-4-yl)methyl)pyrazolo[1,5-a]pyridin-3-yl)dihydropyrimidine-2,4(1H,3H)-dione]: 73%, 27% and 945 nM.
Take `O=C1CCN(c2cnn3ccc(CC4CCN(CCO)CC4)cc23)C(=O)N1` [Example 35, 1-(5-((1-(2-hydroxyethyl)piperidin-4-yl)methyl)pyrazolo[1,5-a]pyridin-3-yl)dihydropyrimidine-2,4(1H,3H)-dione]: the Dmax at 25 µM came out at 73%, the remaining activity at 25 µM turned out to be 27% and the DC50 came to 3140 nM.
For `Cc1cncc(CN2CCC(Cc3ccn4ncc(N5CCC(=O)NC5=O)c4c3)CC2)c1` [Example 36, 1-(5-((1-((5-methylpyridin-3-yl)methyl)piperidin-4-yl)methyl)pyrazolo[1,5-a]pyridin-3-yl)dihydropyrimidine-2,4(1H,3H)-dione], in that order: 72%, 28% and 68 nM.
